Consider two compounds from patent US20240382589A1, “Synergistic Inhibition of eIF5A and Notch Signaling in Intermediate Tregs” (The University of Toledo, priority 2022, published 2024).

For data set [1], the system named is CD4, CD8 and CD25 T cells isolated from PLN of TID mice. Put plainly: In vitro co-stimulation / CFSE proliferation of T cells from PLN of TID mice. It is filed as cell-based, mouse. Here is the method:
Purified CD4, CD8, and CD25 cells were isolated from TID mice using the mice CD4 T Cell Isolation Kit (#130-104-454), CD8a+ T Cell Isolation Kit II (#130-095-236), and CD4+ CD25+ Regulatory T Cell Isolation Kit (Cat no: 130-091-041) following standard protocol. Briefly, after sacrificing the TID mice, pancreatic lymph nodes (PLN) were isolated and single cell suspensions were prepared. Non-CD4 T cells and non-CD8 T cells were isolated using magnetically labeled microbeads. Non-CD4 T cells were retained in the MACS column and non-touch enriched CD4 and CD8 cells were eluted from the column. Simultaneously CD25 positive cells were separated from the CD4 clute with anti-CD25PE microbeads with more than 90% purity. Single cell suspensions of CD4, CD8, and CD25^− T cells were stained with carboxyfluorescein succinimidyl ester (CFSE) to track the induced proliferation. Single cell suspensions of purified CD4, CD8, and CD25 T cells (CFSE-labeled) were co-stimulated with recombinant human GAD65 (rhGAD65) protein ([…]), GC7 (100 mM), anti-DLL4 ([…]), rhGAD65+GC7, rhGAD65+GC7+anti-DLL4, or CD3+CD28 stimulated for 4 days (n=7). CD4 T cells (CFSE-labeled) were further stained with fluorochrome-conjugated antibodies against mouse IL-17(clone 559502, PE), IFNg (clone 554413, APC), and forkhead box P3 (Foxp3) (clone MF23, Alexa Fluor@488, Alexa Fluor@647). In vitro proliferation assays were analyzed by FLOWJO V10 Beta software using fix ratio, fix CV, and fix background from unstimulated cells.

Data set [2] addresses T1, deoxyhypusine synthase (DHS) (Homo sapiens, UniProt P49366).
T1 sequence (P49366 1-369): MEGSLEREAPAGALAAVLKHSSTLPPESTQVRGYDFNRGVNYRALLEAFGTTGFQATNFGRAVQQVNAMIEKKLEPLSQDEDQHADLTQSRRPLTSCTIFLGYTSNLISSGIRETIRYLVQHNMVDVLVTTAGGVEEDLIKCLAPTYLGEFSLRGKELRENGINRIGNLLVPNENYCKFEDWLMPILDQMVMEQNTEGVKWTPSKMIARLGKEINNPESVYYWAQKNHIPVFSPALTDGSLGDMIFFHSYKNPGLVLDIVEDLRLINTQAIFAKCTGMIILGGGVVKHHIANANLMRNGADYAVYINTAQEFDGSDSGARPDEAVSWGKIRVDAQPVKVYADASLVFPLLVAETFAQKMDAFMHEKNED
The following applies: cited from earlier work.

Data set [3] concerns anti-GAD65, anti-IA2 and anti-insulin autoantibodies. Put plainly: Anti-GAD65, anti-IA2 and anti-insulin autoantibody ELISA in mouse serum. It is filed as in vivo. Particulars: TID mice; treatment with GC7 or anti-DLL4. Here is the method:
Anti-GAD65, anti-IA2, and anti-insulin autoantibodies were measured in mice serum using
an Anti-GAD65 ELISA kit (Kronus, Star, ID) according to the manufacturer's instructions. Mice anti-insulin antibodies were measured using a mouse insulin autoantibody (IAA) ELISA kit (Abbexa, catalog #abx053161. Abbexa LLC, Houston, TX, United States; with a positive predictive value range between 0.16 and 10 ng/ml). Anti-IA2 autoantibodies were also measured using a human IA2 autoantibody (IA2Ab) ELISA kit (Kronus, Star, ID) following the manufacturers' manual.
In general terms: In an ELISA, binding on a coated surface is turned into a signal by an enzyme label.

In data set [4] the test system is TID mice and NOD mice. Particulars: cited from earlier work.

As usually defined, the IC50 is the concentration at which inhibition is half-maximal.

Take `N=C(N)NCCCCCCCN` [GC7, N1-guanyl-1,7-diaminoheptane]: in data set [1] (GC7 (100 mM), 4 days), the “Treg population (expression of CD25 and FOXP3 on CD3+ CD4 T cells)” value is “significantly enriched”. The “replicative index of Treg cells (Treg peak)” value in data set [1] (GC7 (100 mM), CFSE) is on record as “significant Treg peak”. Also, the “proliferation index of CD8 T cells” value in data set [1] (compared to conventional stimulation with anti-(CD3+CD28)/rhGAD65) is recorded as “not significant”. The IC50 in data set [2] was 1.7e-05 mM. In addition, in data set [3], the GAD65 antibody titer entry is given as “significantly reduced”. Besides, the “adverse effect in previous in vivo studies” value in data set [4] is “did not reveal any significant adverse effect”.

As for `C/C(=N\NC(=N)N)c1cc(NC(=O)CCCCCCCCC(=O)Nc2cc(/C(C)=N/NC(=N)N)cc(/C(C)=N/NC(=N)N)c2)cc(/C(C)=N/NC(=N)N)c1` [Semapimod], the IC50 in data set [2] is around 2 mM.
